This passage reports Effect results from ChEMBL document CHEMBL1122261, “Synthesis of three potential inhibitors of leukotriene biosynthesis” (1983).

Holding throughout (assay type): functional
The species named for assay [1] is Homo sapiens. Nature of the assay: In vitro effect on lipoxygenase activity in intact human polymorphonuclear leukocytes at a concen of 10 e-4 M on formation of 5-HETE.
The species entered for assay [2] is Homo sapiens. Put plainly: In vitro effect on lipoxygenase activity in intact human polymorphonuclear leukocytes at a concentration of 10 e-4 M on formation of Leukotriene B4 (LTB4).
The species named for assay [3] is Homo sapiens. Put plainly: In vitro effect on lipoxygenase activity in intact human polymorphonuclear leukocytes at a concentration of 10 e-4 M on formation of 5-HETE.

As to `CCCCC/C=C\C/C=C\C/C=C\Cc1ccccc1CCCC(=O)O`, the results for the Effect in the assay listed under Homo sapiens [1] and in the assay filed under Homo sapiens [2] were -94% and -91%, respectively.

Turning to `CCCCC/C=C\C/C=C\C(C)(C)/C=C\C/C=C\CCCC(=O)O`, the Effect in the assay listed under Homo sapiens [1] came to 60%; in the assay listed under Homo sapiens [2], 40%.

Consider `CCCCC/C=C\C/C=C\C/C=C\C(C)(C)/C=C\CCCC(=O)O`, for which the Effect turned out to be 29% in the assay filed under Homo sapiens [3] and 19% in the assay listed under Homo sapiens [2].
